Results: US20070072246A1, “Cell-based assays for determining drug action” (priority 2003, published 2007)
Like-named read-outs stand apart in the source and are kept apart here.

Tests used:
[1] = test system: PBMC and endothelial cell co-culture; test: SAg system: PBMC and endothelial cell co-culture stimulated with superantigen; assay type: cell-based, human
[2] = test system: primary human endothelial cells (EC); test: 3C system: endothelial cells stimulated with IL-1β, TNF-α and IFN-γ, readout parameters by cell-based ELISA; conditions: 24 hr cytokine activation; non-toxic concentrations
Description: Cell culture. Human umbilical vein endothelial cells (HUVEC) were obtained from Cascade Biologics (Portland, Oreg.) and cultured in EGM-2 medium containing supplements provided by the manufacturer and 2% heat inactivated fetal bovine serum (Hyclone, Logan, Utah) and subcultured with 0.05% trypsin-0.53 mM EDTA (Mediatech, Herndon, Va.) as described by the manufacturer. […] Experiments were performed by culturing HUVEC in microtiter plates (Falcon; BD Biosciences), in the presence of cytokines (IL-1β, 1 ng/ml; TNF-α, 5 ng/ml; and IFN-γ, 100 ng/ml), activators (SAg, 20 ng/ml or LPS, 0.2 ng/ml), and/or PBMC (7.5×10^4) for the indicated times. Drugs were added 1 hr before stimulation and were present during the whole 24 hr stimulation period.
Cell-based ELISAs. […] Briefly, microtiter plates containing treated and stimulated HUVEC (or HUVEC/PBMC) were blocked, and then incubated with primary antibodies or isotype control antibodies (0.01-0.5 μg/ml) for 1 hr. […] Plates were washed and developed with TMB substrate (Clinical Science Products, Mansfield, Mass.) and the absorbance (OD) was read at 450 nm (subtracting the background absorbance at 650 nm) with a Molecular Devices SpectraMAX 190 plate reader (Molecular Devices, Sunnyvale, Calif.).
Data analysis. Mean OD values for each parameter were calculated from triplicate samples per experiment. […]

[3] = 24 hr SAg stimulation, non-toxic concentrations

IL-1 receptor antagonist: Recombinant human IL-1ra
activity in the SAg system [1]: detects inhibition

CCCCOc1cc(CC2CNC(=O)N2)ccc1OC (stereo not drawn) [Ro-20-1274]
activity in the SAg system [1, 3]: active

COc1cccc(-c2cc(=O)c3ccccc3o2)c1N [PD098059]
activity in the 3C (endothelial inflammation) system [2]: induces a characteristic response profile

Cc1ccc(-c2nn(C(C)(C)C)c3ncnc(N)c23)cc1 [PP1]
activity in the SAg system [1]: active

COc1cc2ncnc(Nc3ccc(O)cc3)c2cc1OC [WHI-P131]
activity in the SAg system [1, 3]: active

CC(C)(C)n1nc(-c2ccc(Cl)cc2)c2c(N)ncnc21 [PP2]
activity in the SAg system [1]: active

CC(C)N(CCC(=O)c1ccc2ccccc2c1)Cc1ccccc1 [ZM39923]
activity in the SAg system [1, 3]: active

Nc1nccc(-c2c(-c3ccc(F)cc3)ncn2C2CCNCC2)n1 [SB220025]
activity in the SAg system [1, 3]: retain activity

O=c1cc(-c2ccc(O)cc2)oc2cc(O)cc(O)c12 [apigenin]
activity in the 3C (endothelial inflammation) system [2]: induces a characteristic response profile

CO[C@H]1C[C@@H]2CC[C@@H](C)[C@@](O)(O2)C(=O)C(=O)N2CCCC[C@H]2C(=O)O[C@H]([C@H](C)C[C@@H]2CC[C@@H](O)[C@H](OC)C2)CC(=O)[C@H](C)/C=C(\C)[C@@H](O)[C@@H](OC)C(=O)[C@H](C)C[C@H](C)/C=C/C=C/C=C/1C [rapamycin]
activity in the SAg system [1, 3]: active

COc1ccc(C2CNC(=O)C2)cc1OC1CCCC1 (stereo not drawn) [rolipram]
activity in the SAg system [1, 3]: active

B1: IL-10: Recombinant human IL-10 (protein, UniProt P22301 19-178, looked up)
Interleukin-10: SPGQGTQSENSCTHFPGNLPNMLRDLRDAFSRVKTFFQMKDQLDNLLLKESLLEDFKGYLGCQALSEMIQFYLEEVMPQAENQDPDIKAHVNSLGENLKTLRLRLRRCHRFLPCENKSKAVEQVKNAFNKLQEKGIYKAMSEFDIFINYIEAYMTMKIRN
activity in the SAg system [1]: active
